# From patent US10723741B1, “DNA polymerase IIIC inhibitors and use thereof” (Acurx Pharmaceuticals, LLC, priority 2018, dated 2020)
# Read-outs that look alike come from different tables or passages of the source.
# What was measured:
# Format in all cases: cell-based
# [1] = system: Streptococcus pneumoniae ATCC 49619; assay: Broth microdilution MIC, S. pneumoniae ATCC 49619; details: ATCC49619, broth microdilution, 37° C., 20 hours, read-out: MIC S. pneumoniae ATCC 49619
# In short: (§1)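 Broth microdilution in strain-specific test medium with ~5.0×10^5 cfu/ml inoculum, 1% DMSO and two-fold compound dilutions from 64 to 0.0625 μg/ml. Plates were held 20 hours at 37° C in ambient air. S. pneumoniae colonies were grown beforehand on blood agar in 5% CO2.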
# [2] = system: Escherichia coli ATCC 25922; assay: Broth microdilution MIC, E. coli ATCC 25922 (MHIIB w & w/o 4 mM EDTA); details: broth microdilution, 37° C., 20 hours; for MIC: Escherichia coli, ATCC25922, without EDTA, read-out: MIC E. coli ATCC 25922; for MIC E. coli ATCC 25922 + 4 mM EDTA: with 4 mM EDTA
# In short: as §1
# [3] = system: Enterococcus faecium ATCC 700221 (VRE); assay: Broth microdilution MIC, E. faecium ATCC 700221 (VRE); details: Enterococcus faecium, broth microdilution, 37° C., 20 hours
# In short: as §1
# [4] = system: Staphylococcus aureus ATCC 29213 (MSSA); assay: Broth microdilution MIC, S. aureus ATCC 29213 (MSSA); details: broth microdilution, 37° C., 20 hours, read-out: MIC S. aureus ATCC 29213 (MSSA)
# In short: as §1
# [5] = system: Bacillus subtilis ATCC 6633; assay: Broth microdilution MIC, B. subtilis ATCC 6633; details: ATCC6633, broth microdilution, 37° C., 20 hours, read-out: MIC B. subtilis ATCC 6633
# In short: as §1
# [6] = system: Enterococcus faecalis ATCC 29212; assay: Broth microdilution MIC, E. faecalis ATCC 29212; details: ATCC29212, broth microdilution, 37° C., 20 hours, read-out: MIC E. faecalis ATCC 29212
# In short: as §1
# [7] = system: Staphylococcus aureus NRS384 (MRSA); assay: Broth microdilution MIC, S. aureus NRS384 (MRSA); details: Staphylococcus aureus, broth microdilution, 37° C., 20 hours
# In short: as §1
# [8] = read-out: MIC E. faecium ATCC 700221 (VRE)
SMILES,MIC [1] [µg/mL],MIC [2] [µg/mL],MIC E. coli ATCC 25922 + 4 mM EDTA [2] [µg/mL],"MIC [3, 8] [µg/mL]",MIC [4] [µg/mL],MIC [5] [µg/mL],MIC [6] [µg/mL],MIC ([7]; read-out: MIC NRS 384 (MRSA)) [µg/mL],"MIC ([3]; MHIIB, read-out: MIC against E. faecium ATCC 700221 (VRE)) [µg/mL]","MIC ([7]; MHIIB, read-out: MIC against S. aureus NRS 384 (MRSA)) [µg/mL]"
"COCCCCCn1ncc2nc(NCc3ccc(Cl)c(Cl)c3)[nH]c(=O)c21 [Compound 131, 5-((3,4-Dichlorobenzyl)amino)-1-(5-methoxypentyl)-1H-pyrazolo[4,3-d]pyrimidin-7(6H)-one]",4,> 64,>64,2,2,1,4,2,–,–
"CC(C)n1cc2nc(NCc3ccc(Cl)c(Cl)c3)[nH]c(=O)c2n1 [Compound 132, 5-((3,4-Dichlorobenzyl)amino)-2-isopropyl-2H-pyrazolo[4,3-d]pyrimidin-7(6H)-one]",16,> 64,>64,16,> 64,8,> 64,> 64,–,–
"COCCCCCn1cc2nc(NCc3ccc(Cl)c(Cl)c3)[nH]c(=O)c2n1 [Compound 133, 5-((3,4-Dichlorobenzyl)amino)-2-(5-methoxypentyl)-2H-pyrazolo[4,3-d]pyrimidin-7(6H)-one]",16,> 64,>64,64,> 64,8,> 64,> 64,–,–
"O=c1[nH]c(NCc2ccc(Cl)c(Cl)c2)nc2cnn(CC3CCC3)c12 [Compound 134, 1-(Cyclobutylmethyl)-5-((3,4-dichlorobenzyl)amino)-1H-pyrazolo[4,3-d]pyrimidin-7(6H)-one]",8,> 64,>64,1,1,0.5,> 64,1,≤ 1,≤ 1
"O=c1[nH]c(NCc2ccc(Cl)c(Cl)c2)nc2cn(CC3CCC3)nc12 [Compound 135, 2-(Cyclobutylmethyl)-5-((3,4-dichlorobenzyl)amino)-2H-pyrazolo[4,3-d]pyrimidin-7(6H)-one]",16,> 64,8,8,32,4,> 64,8,–,–
"COCCOCCn1cc2nc(NCc3ccc(Cl)c(Cl)c3)[nH]c(=O)c2n1 [Compound 137, 5-((3,4-Dichlorobenzyl)amino)-2-(2-(2-methoxyethoxy)ethyl)-2H-pyrazolo[4,3-d]pyrimidin-7(6H)-one]",16,> 64,>64,16,32,16,32,32,–,–

# Now from value to compound:
MIC [1] [µg/mL],MIC [2] [µg/mL],MIC E. coli ATCC 25922 + 4 mM EDTA [2] [µg/mL],"MIC [3, 8] [µg/mL]",MIC [4] [µg/mL],MIC [5] [µg/mL],MIC [6] [µg/mL],MIC ([7]; read-out: MIC NRS 384 (MRSA)) [µg/mL],"MIC ([3]; MHIIB, read-out: MIC against E. faecium ATCC 700221 (VRE)) [µg/mL]","MIC ([7]; MHIIB, read-out: MIC against S. aureus NRS 384 (MRSA)) [µg/mL]",SMILES
4,> 64,16,2,2,1,4,2,–,–,"CC(C)n1ncc2nc(NCc3ccc(Cl)c(Cl)c3)[nH]c(=O)c21 [Compound 130, 5-((3,4-Dichlorobenzyl)amino)-1-isopropyl-1H-pyrazolo[4,3-d]pyrimidin-7(6H)-one]"
2,> 64,>64,2,4,1,4,4,–,–,"COCCOCCn1ncc2nc(NCc3ccc(Cl)c(Cl)c3)[nH]c(=O)c21 [Compound 136, 5-((3,4-Dichlorobenzyl)amino)-1-(2-(2-methoxyethoxy)ethyl)-1H-pyrazolo[4,3-d]pyrimidin-7(6H)-one]"
2,> 64,>64,2,2,1,4,2,–,–,"COCCOCn1ncc2nc(NCc3ccc(Cl)c(Cl)c3)[nH]c(=O)c21 [Compound 138, 5-((3,4-dichlorobenzyl)amino)-1-((2-methoxyethoxy)methyl)-1H-pyrazolo[4,3-d]pyrimidin-7(6H)-one]"
